In brackets after ≈: the same amount, converted by molar mass. Numbered stars: 1 amine (or outer) side, 2 acyl side, 3 side chain; on linkers, the order of the positions; unused ones are H or OH. Square brackets hold non-standard residues; d marks the D form. Ends that are not written are not given here. Peptide text beside a SMILES is read from it. Suc = O=C(CCC(=O)[*:2])[*:1]; Sar = CNCC(=O)O
Experiments:
[1] = system: abdominal skin of C.R rats; test: Rat skin test: intradermal injection of peptide, then intradermal compound 48/80 or vehicle, wheal area; format: in vivo; settings: for Mean wheal size, compound 48/80-induced cutaneous reaction: Fenistil Gel 100 mg t.a., Cromoglycate 20 mg/ml i.d., Peptide 2 10 mg/ml i.d.; for block of compound 48/80 induced allergic reaction in vivo, rat skin: intradermal peptide; for Mean Wheal Area ± STD, Vehicle: vehicle instead of compound 48/80
Experimental: The hair of the abdominal area of C.R rats was carefully removed with an electric clipper and a depilatory cream. In each animal the abdominal area was divided to six equal zones that were marked by pen. Each zone was either subjected to peptide treatment or served as a control. In the first set of experiments, the peptide was topically applied as follows: 36 μl of peptide solution at the indicated concentration (dissolved in 72% DMSO in saline) was applied on desired abdominal area. In the second set of experiments, the peptide was injected intradermally as follows: 20 μl of peptide solution at different concentrations (dissolved in 10% DMSO in saline) was injected intradermally to an indicated abdominal area using a 27-gauge sterile needle.
Skin tests were performed 0.5, 1 or 2 hours following application of the peptide. Skin tests were performed by injecting intradermally 20 μl of the allergen (0.1 mg/ml compound 48/80 dissolved in saline) or saline alone, into the center of each marked area on the abdominal skin using a 27-gauge sterile needle. The allergic response was monitored by outlining with a marker the wheals which developed in response to allergen or saline treatment.
To quantitate the skin test results, the marker signs were transferred onto paper with scotch tape. The areas of the wheals were outlined and calculated by a computerized planimeter (Hewlett-Packard), as previously described (Sussman et al., 1982).
Tables 10-16 presents the mean areas of the wheals, which developed in response to intradermal injection of each of the tested peptides, followed by either compound 48/80 or DDW injection applied after 0.5 or 1 hour. Two doses were tested for each peptide-20 and 200 μg (injection of 20 μl from a stock solution of 1 mg/ml or 10 mg/m respectively).
Skin tests on rats using compound 48/80 as the allergen assessed the ability of the peptides of the present invention to block allergic cutaneous reactions. The abdominal skin of the rats was subjected to peptide (indicated concentrations are listed in Tables 17A-17B below) or vehicle treatment (intradermal injection); the allergic response was induced by intradermal injection of compound 48/80 at various times; and the allergic response was quantified by calculating the area of the resultant allergic wheals.

mice = test: IgE-independent mouse conjunctivitis induced by compound 48/80, clinical score; format: in vivo; parameters: scale not given here; settings: for Average Score, Chemosis: drug 24, 21, 18 hrs and 30 min before compound 48/80, Cromoglycate 2%, Dexamethazone 0.1%, Peptide 2 2%, no treatment 2.0; for Average Score, Erythema / Average Score, Tearing / Average Score, Lid edema / Average Score, Total score: drug before compound 48/80; for Average Score, Erythema: no treatment 0.8; for Average Score, Tearing: no treatment 2.3; for Average Score, Lid edema: no treatment 2.5; for Average Score, Total score: no treatment 7.6
Experimental: A murine model was chosen as an in vivo model of IgE-independent human conjunctivitis, induced by a basic secretagogue.
Six groups of mice were topically treated as described in Table 19. The first application was installed 4 times (24 hours, 21 hours, 18 hours and 30 minutes) prior to the second application.
Clinical evaluation of allergic conjunctivitis was conducted in a blind fashion by determining the extent and intensity of lid edema, chemosis, erythema and tearing.

[2] = system: purified rat peritoneal mast cells; test: Histamine secretion from intact mast cells incubated with peptide alone (secretagogue side effect); settings: for Secretagogue (histamine secretion following incubation of mast cell with different concentrations of each peptide): Table 9, no allergen; for Secretagogue (histamine secretion following incubation of mast cell with different concentrations of each peptide) / basal level of histamine secretion compared to control cells: peptide alone; for histamine secretion from mast cells on incubation with increasing concentrations of peptide alone: no additional allergen; for basal level of histamine secretion compared to control cells: increasing concentrations
[3] = system: purified rat peritoneal mast cells; format: cell-based; settings: for maximal inhibition of compound 48/80 induced histamine secretion: 600 μg/ml peptide, compound 48/80 concentration not given; for Inhibitor (extent of inhibition of histamine secretion from mast cells): Table 9, incubation with different concentrations of each peptide, then induction of the allergic reaction
Experimental: 37° C. […] Each data point represents the average of duplicate measurements. The spontaneously released histamine was subtracted.
First, the effect of compound 48/80 on exocytosis from intact mast cells was determined. […] Histamine release was determined and is presented as the net secretion that is % of the total cellular histamine following subtraction of the spontaneously released histamine. Half-maximal release was obtained at 0.1 μg/ml while maximal release was obtained at 1-10 μg/ml. Accordingly, in order to analyze the potential of each peptide to block histamine secretion, histamine secretion was induced with 5 μg/ml compound 48/80, a concentration that induces a maximal histamine release, while the cells were incubated in the presence of increasing concentrations of each peptide.
In order to investigate the ability of these peptides to block allergen-induced exocytosis, the peptides were examined for their ability to block compound 48/80 induced histamine secretion from intact mast cells in vitro. Mast cells were incubated with different concentrations of each peptide, followed by induction of histamine secretion by compound 48/80.

[4] = intradermal peptide 1 mg/ml, 0.5 hour before allergic induction
[5] = intradermal peptide 1 mg/ml, 0.5 hour before
[6] = intradermal peptide 1 mg/ml, 1 hour before
[7] = intradermal peptide 10 mg/ml, 0.5 hour before allergic induction
[8] = intradermal peptide 10 mg/ml, 0.5 hour before
[9] = intradermal peptide 10 mg/ml, 1 hour before

Row | Molecule | Average Score, Chemosis (mice) | Average Score, Erythema (mice) | Average Score, Tearing (mice) | Average Score, Lid edema (mice) | Average Score, Total score (mice) | Secretagogue (histamine secretion following incubation of mast cell with different concentrations of each peptide) [2] | histamine secretion from mast cells on incubation with increasing concentrations of peptide alone [2] | basal level of histamine secretion compared to control cells [2] | block of compound 48/80 induced allergic reaction in vivo, rat skin [1] | Mean Wheal Area ± STD, Compound 48/80 [1, 4] | Mean Wheal Area ± STD, Vehicle [1, 5] | Mean Wheal Area ± STD, Vehicle [1, 6] | Mean Wheal Area ± STD, Compound 48/80 [1, 7] | Mean Wheal Area ± STD, Vehicle [1, 8] | Mean Wheal Area ± STD, Vehicle [1, 9] | IC50, compound 48/80 induced histamine secretion [3] [µg/mL] | maximal inhibition of compound 48/80 induced histamine secretion [3] [%] | Inhibitor (extent of inhibition of histamine secretion from mast cells) [3] | further results
1 | O=C(O)c1cc(=O)c2c(OCC(O)COc3cccc4oc(C(=O)O)cc(=O)c34)cccc2o1 [Cromoglycate] | 0.5 | 0.5 | 1.9 | 1.1 | 4.0 |  |  |  |  |  |  |  |  |  |  |  |  |  | Mean wheal size, compound 48/80-induced cutaneous reaction ([1]; 0.5 hour incubation, Ceterizine 0.01 mg/ml i.d., no treatment 115.5 ± 30.4): 76.2 ± 17.5 mm^2; Mean wheal size, compound 48/80-induced cutaneous reaction ([1]; 1 hour incubation, no treatment 123.3 ± 33.9): 91.5 ± 12.6 mm^2
2 | CC(C)C[C@H](NC(=O)CNC(=O)[C@@H](NC(=O)[C@H](CCC(=O)O)NC(=O)[C@H](CCCCN)NC(=O)[C@H](CC(C)C)NC(=O)[C@H](CC(N)=O)NC(=O)[C@H](CC(N)=O)NC(=O)[C@H](CCCCN)NC(=O)[C@@H]1CCCN1C(=O)[C@H](C)NC(=O)[C@H](CC(C)C)NC(=O)[C@H](CC(C)C)NC(=O)[C@H](C)NC(=O)[C@H](CC(C)C)NC(=O)[C@H](CC(C)C)NC(=O)[C@@H](NC(=O)[C@H](C)NC(=O)[C@@H]1CCCN1C(=O)[C@H](CC(C)C)NC(=O)[C@H](CC(C)C)NC(=O)[C@H](C)NC(=O)[C@@H](NC(=O)[C@H](C)NC(=O)[C@H](C)NC(=O)CCC(=O)O)C(C)C)C(C)C)C(C)C)C(=O)N[C@@H](Cc1ccc(O)cc1)C(=O)O [WALL016] (Suc-AAVALLPAVLLALLAPKNNLKEVGLY-OH; C-terminus assumed) |  |  |  |  |  | − | did not result in histamine secretion | inhibition of the basal histamine secretion | effectively block the allergic response in vivo | 104.2 ± 21.6 (n = 5) mm^2 | 66.4 ± 12.5 (n = 5) mm^2 | 62.8 ± 14.6 (n = 6) mm^2 | 81.2 ± 7.9 (n = 5) mm^2 | 72.6 ± 16.2 (n = 5) mm^2 | 69.3 ± 17.0 (n = 6) mm^2 | 295 (≈ 106 µM) | 79.6 | ++ (++ Moderate inhibitor (50%-70% inhibition)) | Mean Wheal Area ± STD, Compound 48/80 ([1]; intradermal peptide 1 mg/ml, 1 hour before allergic induction): 96.3 ± 15.6 (n = 6) mm^2; Mean Wheal Area ± STD, Compound 48/80 ([1]; intradermal peptide 10 mg/ml, 1 hour before allergic induction): 82.1 ± 27.2 (n = 6) mm^2; reduction of compound 48/80 induced allergic reaction ([1]; intradermal peptide 0.5 or 1 hour before allergic induction): significant inhibition
3 | C[C@@H]1C[C@H]2[C@@H]3CCC4=CC(=O)C=C[C@]4(C)[C@@]3(F)[C@@H](O)C[C@]2(C)[C@@]1(O)C(=O)CO [Dexamethazone] | 0 | 0.6 | 1.0 | 0 | 1.6 |  |  |  |  |  |  |  |  |  |  |  |  |  | 
4 | AAVALLPAVLLALLAPKNNLKEVGLY [WALL007] |  |  |  |  |  | − | did not result in histamine secretion |  |  |  | 76.5 ± 14.1 (n = 12) mm^2 | 62.4 ± 11.1 (n = 15) mm^2 |  | 74.5 ± 26.4 (n = 12) mm^2 | 65.9 ± 10.0 (n = 11) mm^2 | 230 |  |  | 
5 | CC(C)C[C@H](NC(=O)CNC(=O)[C@H](CS)NC(=O)[C@H](CCC(=O)O)NC(=O)[C@H](CCCCN)NC(=O)[C@H](CC(C)C)NC(=O)[C@H](CC(N)=O)NC(=O)[C@H](CC(N)=O)NC(=O)[C@H](CCCCN)NC(=O)CN(C)C(=O)[C@H](C)NC(=O)[C@H](CC(C)C)NC(=O)[C@H](CC(C)C)NC(=O)[C@H](C)NC(=O)[C@H](CC(C)C)NC(=O)[C@H](CC(C)C)NC(=O)[C@@H](NC(=O)[C@H](C)NC(=O)[C@@H]1CCCN1C(=O)[C@H](CC(C)C)NC(=O)[C@H](CC(C)C)NC(=O)[C@H](C)NC(=O)[C@@H](NC(=O)[C@H](C)NC(=O)[C@H](C)NC(=O)CCC(=O)O)C(C)C)C(C)C)C(=O)N[C@@H](Cc1ccc(O)cc1)C(=O)O [WALL008] (Suc-AAVALLPAVLLALLA[Sar]KNNLKECGLY-OH; C-terminus assumed) |  |  |  |  |  | − | did not result in histamine secretion | inhibition of the basal level of histamine secretion | effectively block the allergic response in vivo | 104.1 ± 18.5 (n = 4) mm^2 | 79.9 ± 22.3 (n = 4) mm^2 |  | 73.7 ± 12.2 (n = 4) mm^2 | 72.8 ± 13.6 (n = 4) mm^2 |  | 220 (≈ 79.9 µM) | 98.7 | +++ (+++ Potent inhibitor (≧80% inhibition)) | reduction of compound 48/80 induced allergic reaction ([1]; intradermal peptide 0.5 hour before allergic induction): significant inhibition

Reference: patent US20070009544A1, “Anti-allergic complex molecules” (priority 1999, published 2007)
